Assay results reported in patent publication US11919908B2, “Substituted pyrrolo[2,3-d]pyrimidine compounds as JAK2 V617F inhibitors” (Incyte Corporation, priority 2020, dated 2024).

What was measured:
[1] = molecular target: T1, pseudo-kinase domain (JH2) of human V617F mutant JAK2 (Homo sapiens, UniProt O60674, F794H/V617F/W659A/W777A); assay: JAK2 LanthaScreen JH2-V617F Binding Assay; conditions: 50 nM Fluorescent JAK2-JH2 Tracer, 1 hour at 25° C.
T1 construct: pseudo-kinase domain (JH2, amino-acids 536-812 with 3 surface mutations W659A, W777A, F794H); His (C); purchased BPS Bioscience 79498; host or cells: baculovirus expression system
Method in brief: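 Biotinylated His-Avi-tagged JH2 domain (aa 536-812, V617F plus 3 surface mutations; 0.26 nM), baculovirus-expressed, incubated 1 hour at 25° C with compound, 50 nM fluorescent JH2 tracer and 0.25 nM streptavidin-Tb in pH 7.5 Tris buffer. Tracer displacement read by LanthaScreen TR-FRET; non-specific binding with 2 mM ATP; four-parameter IC50.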

[2] = molecular target: T2, pseudo-kinase domain (JH2) of human Wild Type JAK2 (Homo sapiens, UniProt O60674, F794H/W659A/W777A); assay: JAK2 LanthaScreen JH2-WT Binding Assay; conditions: 50 nM Fluorescent JAK2-JH2 Tracer, 1 hour at 25° C.
T2 construct: pseudo-kinase domain (JH2, amino-acids 536-812 with 3 surface mutations W659A, W777A, F794H); His (C); purchased BPS Bioscience 79463; host or cells: baculovirus expression system
Method in brief: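 Biotinylated His-Avi-tagged JAK2 JH2 (aa 536-812, three surface mutations; 0.145 nM) competed with 50 nM fluorescent tracer, using 0.25 nM streptavidin-Tb, in pH 7.5 Tris buffer for 1 h at 25° C.; non-specific binding was set with 2 mM ATP. TR-FRET read; IC50 from four-parameter fit.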

[3] = molecular target: T3, catalytic domain (JH1) of human JAK2 (Homo sapiens, UniProt O60674); assay: JAK2 LanthaScreen JH1 Binding Assay; conditions: 50 nM Fluorescent JAK2-JH1 Tracer, 2 hours at 25° C.
T3 construct: catalytic domain (JH1, amino acids 826-1132) of human JAK2; FLAG (N); purchased Carna Biosciences 08-445-20N; host or cells: baculovirus expression system
Method in brief: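 TR-FRET tracer-displacement binding using N-terminal FLAG-tagged, biotinylated JH1 (aa 826-1132, baculovirus-expressed) at 1.5 nM, with 50 nM fluorescent tracer and 0.5 nM streptavidin-Tb. Buffer was 50 mM Tris pH 7.5, 10 mM MgCl2, 5 mM DTT, 2 h at 25° C. Non-specific binding used 2 mM ATP; IC50 came from four-parameter fits.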

T2 sequence (O60674 536-812 W659A/W777A/F794H): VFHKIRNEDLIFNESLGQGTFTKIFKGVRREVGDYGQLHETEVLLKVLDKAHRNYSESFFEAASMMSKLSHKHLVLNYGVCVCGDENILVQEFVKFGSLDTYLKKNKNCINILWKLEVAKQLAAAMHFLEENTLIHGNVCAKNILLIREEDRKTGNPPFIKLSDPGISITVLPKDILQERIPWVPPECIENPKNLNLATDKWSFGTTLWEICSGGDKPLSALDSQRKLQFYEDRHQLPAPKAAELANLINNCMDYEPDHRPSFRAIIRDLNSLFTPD
T3 sequence (O60674 826-1132): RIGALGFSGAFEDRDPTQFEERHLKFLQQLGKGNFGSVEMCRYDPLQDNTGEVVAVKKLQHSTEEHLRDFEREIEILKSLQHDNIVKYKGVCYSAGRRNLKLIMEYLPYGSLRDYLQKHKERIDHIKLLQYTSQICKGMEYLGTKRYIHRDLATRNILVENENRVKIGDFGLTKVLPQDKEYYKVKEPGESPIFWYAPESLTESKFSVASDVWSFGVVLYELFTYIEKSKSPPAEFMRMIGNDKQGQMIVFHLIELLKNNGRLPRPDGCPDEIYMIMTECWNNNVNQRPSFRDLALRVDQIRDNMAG
T1 sequence (O60674 536-812 V617F/W659A/W777A/F794H): as the sequence (O60674 536-812 W659A/W777A/F794H) above, with V82F counted along it

Compound	IC50 [1] [nM]	IC50 [2] [nM]	IC50 [3] [nM]
Cc1ccc(F)c(-c2c(-c3ccc(S(=O)(=O)N(C)C)cc3)[nH]c3nc(N)[nH]c(=O)c23)c1 [Example 69, 4-(2-Amino-5-(2-fluoro-5-methylphenyl)-4-oxo-4,7-dihydro-3H-pyrrolo[2,3-d]pyrimidin-6-yl)-N,N-dimethylbenzenesulfonamide]	100 to 500	100 to 500	1000 to 2500
CN(C)S(=O)(=O)c1ccc(-c2[nH]c3nc(N)[nH]c(=O)c3c2-c2cnn(Cc3ccc(C#N)cc3)c2)cc1 [Example 31, 4-(2-Amino-5-(1-(4-cyanobenzyl)-1H-pyrazol-4-yl)-4-oxo-4,7-dihydro-3H-pyrrolo[2,3-d]pyrimidin-6-yl)-N,N-dimethylbenzene sulfonamide]	1000 to 2500	1000 to 2500	1000 to 2500
COc1ccccc1-c1c(-c2ccc(C(=O)N(C)C)cc2)[nH]c2nc(N)[nH]c(=O)c12 [Example 56, 4-(2-Amino-5-(2-methoxyphenyl)-4-oxo-4,7-dihydro-3H-pyrrolo[2,3-d]pyrimidin-6-yl)-N,N-dimethylbenzamide]	500 to 1000	500 to 1000	> 2500
CN(C)S(=O)(=O)c1ccc(-c2[nH]c3nc(N)[nH]c(=O)c3c2-c2ccc(S(C)(=O)=O)cc2)cc1 [Example 13, 4-(2-Amino-5-(4-(methylsulfonyl)phenyl)-4-oxo-4,7-dihydro-3H-pyrrolo[2,3-d]pyrimidin-6-yl)-N,N-dimethylbenzene sulfonamide]	100 to 500	100 to 500	1000 to 2500
CN(C)S(=O)(=O)c1ccc(-c2[nH]c3nc(N)[nH]c(=O)c3c2-c2cnn(Cc3ccc(C(=O)O)cc3)c2)cc1 [Example 52, 4-((4-(2-amino-6-(4-(N,N-dimethylsulfamoyl)phenyl)-4-oxo-4,7-dihydro-3H-pyrrolo[2,3-d]pyrimidin-5-yl)-1H-pyrazol-1-yl)methyl)benzoic acid]	100 to 500	100 to 500	> 2500
Cc1cccc(-c2c(-c3ccc(S(=O)(=O)N(C)C)cc3)[nH]c3nc(N)[nH]c(=O)c23)c1F [Example 67, 4-(2-Amino-5-(2-fluoro-3-methylphenyl)-4-oxo-4,7-dihydro-3H-pyrrolo[2,3-d]pyrimidin-6-yl)-N,N-dimethylbenzenesulfonamide]	100 to 500	100 to 500	100 to 500
COc1ccccc1-c1c(-c2cccc(S(C)(=O)=O)c2)[nH]c2nc(N)[nH]c(=O)c12 [Example 63, 2-Amino-5-(2-methoxyphenyl)-6-(3-(methylsulfonyl)phenyl)-3,7-dihydro-4H-pyrrolo[2,3-d] pyrimidin-4-one]	> 2500	> 2500	> 2500
CN(C)S(=O)(=O)c1ccc(-c2[nH]c3nc(N)[nH]c(=O)c3c2-c2cccc3c2OCO3)cc1 [Example 44, 4-(2-Amino-5-(benzo[d] [1,3]dioxol-4-yl)-4-oxo-4,7-dihydro-3H-pyrrolo[2,3-d]pyrimidin-6-yl)-N,N-dimethylbenzene sulfonamide]	100 to 500	100 to 500	> 2500
COc1ccc(Cl)cc1-c1c(-c2ccc(S(=O)(=O)N(C)C)cc2)[nH]c2nc(N)[nH]c(=O)c12 [Example 27, 4-(2-Amino-5-(5-chloro-2-methoxyphenyl)-4-oxo-4,7-dihydro-3H-pyrrolo[2,3-d]pyrimidin-6-yl)-N,N-dimethylbenzene sulfonamide]	> 2500	1000 to 2500	> 2500
COc1ccc(-c2c(-c3ccc(S(=O)(=O)N(C)C)cc3)[nH]c3nc(N)[nH]c(=O)c23)c(OC)c1 [Example 42, 4-(2-Amino-5-(2,4-dimethoxyphenyl)-4-oxo-4,7-dihydro-3H-pyrrolo[2,3-d]pyrimidin-6-yl)-N,N-dimethylbenzene sulfonamide]	500 to 1000	500 to 1000	> 2500
CN(C)S(=O)(=O)c1ccc(-c2[nH]c3nc(N)[nH]c(=O)c3c2-c2ccccc2)cc1 [Example 38, 4-(2-Amino-4-oxo-5-phenyl-4,7-dihydro-3H-pyrrolo[2,3-d]pyrimidin-6-yl)-N,N-dimethylbenzene sulfonamide]	100 to 500	100 to 500	500 to 1000
CN(C)S(=O)(=O)c1ccc(-c2[nH]c3nc(N)[nH]c(=O)c3c2-c2ccc(C(F)F)cc2)cc1 [Example 9, 4-(2-Amino-5-(4-(difluoromethyl)phenyl)-4-oxo-4,7-dihydro-3H-pyrrolo [2,3-d]pyrimidin-6-yl)-N,N-dimethylbenzene sulfonamide]	500 to 1000	500 to 1000	1000 to 2500
CC(C)c1cccc(-c2c(-c3ccc(S(=O)(=O)N(C)C)cc3)[nH]c3nc(N)[nH]c(=O)c23)c1 [Example 6, 4-(2-Amino-5-(3-isopropylphenyl)-4-oxo-4,7-dihydro-3H-pyrrolo [2,3-d]pyrimidin-6-yl)-N,N-dimethylbenzene sulfonamide]	> 2500	> 2500	> 2500
CN(C)S(=O)(=O)c1ccc(-c2[nH]c3nc(N)[nH]c(=O)c3c2-c2cccc(C#N)c2)cc1 [Example 17, 4-(2-Amino-5-(3-cyanophenyl)-4-oxo-4,7-dihydro-3H-pyrrolo [2,3-d]pyrimidin-6-yl)-N,N-dimethyl-benzene sulfonamide]	500 to 1000	500 to 1000	100 to 500
CN1CCOc2cc(-c3c(-c4ccc(S(=O)(=O)N(C)C)cc4)[nH]c4nc(N)[nH]c(=O)c34)ccc21 [Example 22, 4-(2-Amino-5-(4-methyl-3,4-dihydro-2H-benzo[b] [1,4]oxazin-7-yl)-4-oxo-4,7-dihydro-3H-pyrrolo [2,3-d]pyrimidin-6-yl)-N,N-dimethylbenzene sulfonamide]	500 to 1000	500 to 1000	1000 to 2500
